According to EP4813381A1, “PHARMACEUTICAL USE OF GUAIANE SESQUITERPENE DERIVATIVE” (Nanjing University Of Chinese Medicine, priority 2023, dated 2025):

Assays:
[1] = system: chronic kidney injury induced by unilateral ureteral ligation; assay: Unilateral ureteral ligation (UUO) chronic kidney injury model in mice: Scr and BUN; type: in vivo, C57BL/6 mice; conditions: serum, 14 days
[2] = system: acute kidney injury induced by folic acid; assay: Folic acid acute kidney injury model in mice: serum creatinine (Scr) and blood urea nitrogen (BUN); type: in vivo, C57BL/6 mice; conditions: acute model (FA), 3 days
4T1 cells = type: in vivo, BALB/c mice; conditions: 4T1, oral 40 µmol/kg/day, 3 weeks
Experimental: 4T1 cells were cultured and expanded in vitro. […] A 100 µL aliquot of this suspension was injected subcutaneously into the left forelimb axilla of female BALB/c mice. […] Daily oral administration was performed for 3 weeks. During the treatment period, mouse body weight and tumor diameter were measured daily. At the end of the experiment, mice were euthanized by cervical dislocation, and tumors were removed for weighing. Tumor volume (TV) was calculated using the formula: TV = 1/2 × a × b^2, where a represents the longest diameter of the tumor and b represents the shortest diameter.

lupus nephritis = assay: Lupus nephritis MRL/lpr mice: urinary protein, Scr, BUN, urinary Kim-1 and β-MG; type: in vivo; set-up: Scr / BUN / Kim-1 / β-MG: unit not given here; conditions: oral 30 mg/kg, 8 weeks
Experimental: RT Supermix for qPCR, Nanjing Vazyme Biotech Co., Ltd.; Urea Colorimetric Test Kit, Creatinine Colorimetric Test Kit, Nanjing Jiancheng Biotechnology Co., Ltd.; Urinary Kim-1 and β-MG Content ELISA Kits, Abcam. • Experimental animals: MRL/MpJ and MRL/lpr mice, female, 10 weeks old, purchased from GemPharmatech LLC. Production license number: SCXK(Su)2023-0009. […] They were acclimated for 7 days before use in experiments. […] Oral administration was performed continuously for 8 weeks. […] Aspirate the serum, aliquot it, and store at -70 °C for future use. After blood collection, euthanize mice by cervical dislocation. Open the abdominal cavity, remove kidneys, and dissect out perirenal fat and capsules. […] Store remaining tissues at -70 °C for future use. Serum Creatinine (Scr) and Blood Urea Nitrogen (BUN) Assay: […] Samples were added sequentially strictly according to the kit instructions, incubated at 37 °C, and measured for absorbance values using an enzyme-linked immunosorbent assay (ELISA) reader. The concentration levels of each indicator were calculated based on the standard curve.

[3] = system: renal injury markers (Ngal, Havcr1), inflammatory cytokines (TNF, IL-6, IL-1), fibrosis-related factors (α-Sma, Col1a1, Tgfb1); assay: Unilateral ureteral ligation (UUO) chronic kidney injury model in mice: Q-PCR of kidney tissue; type: in vivo, C57BL/6 mice; set-up: Tnf / Il1 / Il6: unit not given here; conditions: kidney mRNA
[4] = system: inflammatory cytokines (IL-1β, IL-6); assay: LPS acute lung injury model in mice: ELISA of inflammatory cytokines; type: in vivo, C57BL/6 mice
Excerpt: The abdomen was opened, and the lungs were removed. They were rinsed twice with pre-chilled PBS. […] P values less than 0.05 were considered statistically significant.

[5] = system: MC903-induced atopic dermatitis (AD); assay: MC903-induced ear atopic dermatitis mouse model, Compound 1 ointment: ear thickness and dermatitis score; type: in vivo, mice; conditions: for inhibition rate (ear thickness): final day; for Dermatitis Score: ear, score max 12
Experimental: Weigh white petrolatum, light liquid paraffin, glyceryl monostearate, ethylparaben, and cetyl alcohol. Heat to 65 °C while stirring until dissolved. Slowly add the dissolved active pharmaceutical ingredient (API) while continuing to stir until uniformly mixed. Set aside. • (2) Aqueous Phase Preparation: […] Slowly add the aqueous phase to the oil phase while maintaining 65 °C, homogenize, and continue stirring for 30 min; • (4) Cooling: Stop heating, continue stirring, gradually reduce to room temperature, cool to form an ointment, and fill containers. […] Dissolve these substances in a small amount of propylene glycol, then place the resulting solution into the aforementioned pre-cooled blank ointment base. […] Skin Lesion Severity Score: […] Statistical analysis was performed on the data.

[6] = system: Th2-related factors Il4, Il13, Il31 and inflammatory factors Tslp, Tnf, Il1; assay: MC903-induced ear atopic dermatitis mouse model, Compound 1 ointment: Q-PCR of ear; type: in vivo; set-up: unit not given here; conditions: ear mRNA, AD mice
Experimental: Except for the Normal group, all other groups underwent AD modeling: 20 µL of MC903 solution (also known as calcipotriol, purchased from Shanghai Yuanye Biotechnology Co., Ltd., used for inducing atopic models) was applied to each mouse's ears once daily for 14 consecutive days to induce the atopic dermatitis model. […] Measure ear thickness changes every 2 days using an electronic caliper before modeling and after treatment initiation.

[7] = oral gavage 0.1 mg/kg for three days
[8] = oral gavage 1 mg/kg for three days

CN(C)C[C@@H]1C(=O)O[C@H]2[C@H]1CC[C@@]1(C)C[C@]13CC[C@@](C)(O)[C@H]23 [compound 20]
BUN ([1]; oral gavage 1 mg/kg): 9.39±0.92
Scr ([1]; oral gavage 1 mg/kg): 64.50±7.13
BUN ([2]; oral gavage 1 mg/kg): 16.74±1.42
Scr ([2]; oral gavage 1 mg/kg): 64.94±9.68
antitumor effects (4T1 cells): no significant antitumor effects
24-hour urine protein level (lupus nephritis): 0.58±0.03
BUN (lupus nephritis; serum): 9.55±0.75
Scr (lupus nephritis; serum): 18.55±1.08
Kim-1 (lupus nephritis; urine): 0.41±0.02
β-MG (lupus nephritis; urine): 13.55±0.14
α-Sma ([3]; oral 1 mg/kg, 1 mg/kg): 1.26±0.18

C=C1C(=O)O[C@@H]2[C@@H]3[C@]4(CC[C@@]3(C)O)C[C@]4(C)CC[C@@H]12 [compound 1]
BUN ([1]; oral gavage 0.1 mg/kg): 18.41±1.82
Scr ([1]; oral gavage 0.1 mg/kg): 176.35±17.11
BUN ([1]; oral gavage 1 mg/kg): 11.01±1.54
Scr ([1]; oral gavage 1 mg/kg): 104.65±16.26
IL-1β [4, 7]: 1824.88 ± 32.73 pg/mL
IL-6 [4, 7]: 2760.57 ± 288.02 pg/mL
IL-1β [4, 8]: 945.66 ± 36.71 pg/mL
IL-6 [4, 8]: 1314.91 ± 231.08 pg/mL
BUN ([2]; oral gavage 0.1 mg/kg): 31.46±2.54
Scr ([2]; oral gavage 0.1 mg/kg): 108.48±11.76
BUN ([2]; oral gavage 1 mg/kg): 21.33±2.21
Scr ([2]; oral gavage 1 mg/kg): 71.95±5.74
inhibition rate (ear thickness) ([5]; 0.01% Compound 1 ointment): 71%
ear thickness ([5]; 0.01% ointment, Day 1): 0.14±0.00 mm
ear thickness ([5]; 0.01% ointment, Day 3): 0.17±0.00 mm
ear thickness ([5]; 0.01% ointment, Day 5): 0.21±0.00 mm
ear thickness ([5]; 0.01% ointment, Day 7): 0.22±0.00 mm
ear thickness ([5]; 0.01% ointment, Day 8): 0.23±0.01 mm
ear thickness ([5]; 0.01% ointment, Day 9): 0.23±0.01 mm
ear thickness ([5]; 0.01% ointment, Day 10): 0.25±0.00 mm
ear thickness ([5]; 0.01% ointment, Day 11): 0.26±0.01 mm
ear thickness ([5]; 0.01% ointment, Day 12): 0.26±0.01 mm
ear thickness ([5]; 0.01% ointment, Day 13): 0.22±0.01 mm
ear thickness ([5]; 0.01% ointment, Day 14): 0.21±0.01 mm
inhibition rate (ear thickness) ([5]; 0.1% Compound 1 ointment): 71%
ear thickness ([5]; 0.1% ointment, Day 1): 0.14±0.00 mm
ear thickness ([5]; 0.1% ointment, Day 3): 0.17±0.00 mm
ear thickness ([5]; 0.1% ointment, Day 5): 0.21±0.00 mm
ear thickness ([5]; 0.1% ointment, Day 7): 0.21±0.00 mm
ear thickness ([5]; 0.1% ointment, Day 8): 0.23±0.00 mm
ear thickness ([5]; 0.1% ointment, Day 9): 0.23±0.00 mm
ear thickness ([5]; 0.1% ointment, Day 10): 0.23±0.00 mm
ear thickness ([5]; 0.1% ointment, Day 11): 0.24±0.01 mm
ear thickness ([5]; 0.1% ointment, Day 12): 0.24±0.01 mm
ear thickness ([5]; 0.1% ointment, Day 13): 0.21±0.01 mm
ear thickness ([5]; 0.1% ointment, Day 14): 0.21±0.01 mm
inhibition rate (ear thickness) ([5]; 1% Compound 1 ointment): 80%
ear thickness ([5]; 1% ointment, Day 1): 0.15±0.00 mm
ear thickness ([5]; 1% ointment, Day 3): 0.17±0.00 mm
ear thickness ([5]; 1% ointment, Day 5): 0.21±0.00 mm
ear thickness ([5]; 1% ointment, Day 7): 0.22±0.01 mm
ear thickness ([5]; 1% ointment, Day 8): 0.22±0.01 mm
ear thickness ([5]; 1% ointment, Day 9): 0.23±0.01 mm
ear thickness ([5]; 1% ointment, Day 10): 0.23±0.01 mm
ear thickness ([5]; 1% ointment, Day 11): 0.24±0.00 mm
ear thickness ([5]; 1% ointment, Day 12): 0.23±0.01 mm
ear thickness ([5]; 1% ointment, Day 13): 0.20±0.00 mm
ear thickness ([5]; 1% ointment, Day 14): 0.19±0.00 mm
Dermatitis Score ([5]; 0.01% ointment for 7 days): 3.50±0.22
Dermatitis Score ([5]; 0.1% ointment for 7 days): 2.67±0.21
Dermatitis Score ([5]; 1% ointment for 7 days): 2.33±0.33
Il1 ([6]; 0.01% ointment): 19.67 ± 5.26
Il4 ([6]; 0.01% ointment): 3.62 ±0.97
Il13 ([6]; 0.01% ointment): 3.30 ±0.47
Il31 ([6]; 0.01% ointment): 2.31 ±0.28
TSLP ([6]; 0.01% ointment): 2.24 ±0.25
Tnf ([6]; 0.01% ointment): 2.35 ±0.39
Il1 ([6]; 0.1% ointment): 9.89 ±3.44
Il4 ([6]; 0.1% ointment): 1.95 ±0.66
Il13 ([6]; 0.1% ointment): 2.85 ±0.48
Il31 ([6]; 0.1% ointment): 1.64 ±0.25
TSLP ([6]; 0.1% ointment): 1.42 ±0.16
Tnf ([6]; 0.1% ointment): 1.34 ±0.41
Il1 ([6]; 1% ointment): 5.69±1.12
Il4 ([6]; 1% ointment): 1.17±0.37
Il13 ([6]; 1% ointment): 1.56±0.20
Il31 ([6]; 1% ointment): 1.10±0.19
TSLP ([6]; 1% ointment): 1.12±0.07
Tnf ([6]; 1% ointment): 1.01±0.40
Col1a1 ([3]; oral 0.1 mg/kg): 16.09±3.57
Havcr1 ([3]; oral 0.1 mg/kg): 12.56±1.95
Il1 ([3]; oral 0.1 mg/kg): 6.05±0.49
Il6 ([3]; oral 0.1 mg/kg): 16.52±1.69
Ngal ([3]; oral 0.1 mg/kg): 37.82±4.85
Tgfb1 ([3]; oral 0.1 mg/kg): 2.04±0.24
Tnf ([3]; oral 0.1 mg/kg): 6.41±1.46
α-Sma ([3]; oral 0.1 mg/kg): 2.32±0.54
Col1a1 ([3]; oral 1 mg/kg): 9.45±1.03
Havcr1 ([3]; oral 1 mg/kg): 8.54±1.38
Il1 ([3]; oral 1 mg/kg): 3.99±0.31
Il6 ([3]; oral 1 mg/kg): 6.50±1.51
Ngal ([3]; oral 1 mg/kg): 21.66±6.00
Tgfb1 ([3]; oral 1 mg/kg): 1.55±0.19
Tnf ([3]; oral 1 mg/kg): 6.59±1.19
α-Sma ([3]; oral 1 mg/kg): 1.54±0.12
